For this experiment, the target named is human RIP1 kinase domain (2-375) (Homo sapiens (Human), UniProt Q13546). In words: biochemical. In kind it is biochemical. To be noted: 50 uM ATP. The method in brief: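 Ki^app comes from Morrison tight-binding fits of fractional activity versus compound concentration. Activity was read as ADP production, via tracer displacement lowering fluorescence polarization (633 nm laser). Conditions: 2 h, 50 nM insect-cell-expressed enzyme, 50 uM ATP, 30 mM MgCl2, 1 mM DTT, 0.5% DMSO, pH 7.5 Hepes.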

Setting [1] is: human RIP1 kinase domain (2-375), Transcreener ADP assay, 2 hours incubation, read-out: RIP1 Ki.
The mark [2] stands for this setting: tight-binding apparent inhibition constant, human RIP1 kinase domain (2-375) 50 nM, 2 hours, read-out: Ki.
[3] abbreviates: Table 1, apparent Ki (Morrison tight-binding fit), 50 nM RIP1 kinase domain, 2 hours incubation, read-out: RIP1 Ki.
The mark [4] stands for this setting: human RIP1 kinase domain (2-375), 2 hours incubation, Transcreener ADP assay, read-out: RIP1 Ki.
The mark [5] stands for this setting: Table 5, apparent Ki (Morrison tight-binding fit), 50 nM RIP1 kinase domain, 2 hours incubation, read-out: Ki.

Each structure is given as a SMILES string. pKi: −log10 of the molar value. Read-outs that look alike come from different tables or passages of the source.

human RIP1 kinase domain (2-375), sequence (Q13546 2-375): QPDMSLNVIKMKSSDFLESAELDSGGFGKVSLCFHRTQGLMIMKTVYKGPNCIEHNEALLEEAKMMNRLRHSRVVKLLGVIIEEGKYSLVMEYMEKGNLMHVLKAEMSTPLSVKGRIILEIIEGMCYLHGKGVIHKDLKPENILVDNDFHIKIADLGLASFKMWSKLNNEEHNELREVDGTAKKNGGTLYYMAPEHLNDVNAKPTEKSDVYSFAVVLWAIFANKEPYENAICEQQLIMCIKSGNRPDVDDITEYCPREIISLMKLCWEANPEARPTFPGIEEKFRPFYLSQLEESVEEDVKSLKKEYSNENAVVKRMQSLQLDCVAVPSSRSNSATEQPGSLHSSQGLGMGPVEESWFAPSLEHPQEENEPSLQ

By pKi is commonly meant the Ki on a negative log10 scale, so that one unit is a factor of ten. In the case of `CN1C(=O)[C@H](NC(=O)c2ncn(Cc3cccc(F)c3F)n2)CCn2nc([C@H]3CC3(F)F)cc21` [Example 312, 1-(2,3-difluorobenzyl)-N—((R)-2-((R)-2,2-difluorocyclopropyl)-4-methyl-5-oxo-5,6,7,8-tetrahydro-4H-pyrazolo[1,5-a][1,3]diazepin-6-yl)-1H-1,2,4-triazole-3-carboxamide], the pKi under setting [1] was 7.75.

In the case of `CCC(C)(O)c1ccnc(C(=O)N[C@H]2COc3ccccc3N(C)C2=O)n1` (stereo partly drawn) [Example 549, 4-(1-hydroxy-1-methyl-propyl)-N-[(3S)-5-methyl-4-oxo-2,3-dihydro-1,5-benzoxazepin-3-yl]pyrimidine-2-carboxamide], the pKi under setting [2] is 5.43.

Consider `CN1C(=O)[C@@H](NC(=O)c2n[nH]c3c2CC(n2cccn2)CC3)COc2ccccc21` (stereo partly drawn) [Example 20, N—((S)-5-methyl-4-oxo-2,3,4,5-tetrahydrobenzo[b][1,4]oxazepin-3-yl)-5-(1H-pyrazol-1-yl)-4,5,6,7-tetrahydro-1H-indazole-3-carboxamide], for which, under setting [3], the pKi is 6.13.

Regarding `Cc1cc2n(n1)CC[C@H](NC(=O)c1ncn(Cc3ccccc3F)n1)C(=O)N2C` [Example 518, 1-[(2-fluorophenyl)methyl]-N-(6S)-2,4-dimethyl-5-oxo-7,8-dihydro-6H-pyrazolo[1,5-a][1,3]diazepin-6-yl-1,2,4-triazole-3-carboxamide], the pKi under setting [2] was 8.12.

For the molecule `CN1C(=O)[C@@H](NC(=O)c2nnn3c2C[C@H](C(F)(F)F)CC3)COc2ccccc21` [Example 149, (R)-N-((S)-5-methyl-4-oxo-2,3,4,5-tetrahydrobenzo[b][1,4]oxazepin-3-yl)-5-(trifluoromethyl)-4,5,6,7-tetrahydro-[1,2,3]triazolo[1,5-a]pyridine-3-carboxamide], the pKi under setting [4] was 7.19.

With `CC[C@@]1(C)OCc2cnc(C(=O)NC3CCn4cnc(C)c4N(C)C3=O)cc21` (stereo partly drawn) [Example 263, (1R)—N-(1,9-dimethyl-2-oxo-2,3,4,5-tetrahydro-1H-imidazo[1,5-a][1,3]diazepin-3-yl)-1-ethyl-1-methyl-1,3-dihydrofuro[3,4-c]pyridine-6-carboxamide], under setting [1], the pKi is 6.07.

With `CN1C(=O)[C@@H](NC(=O)c2ncn(Cc3ccccc3)n2)CCn2nccc21` [Example B], for the setting “scale-up batches (Examples A-C), apparent Ki (Morrison tight-binding fit), 50 nM RIP1 kinase domain, read-out: Ki”, the negative logarithm of the Ki (pKi) was 7.89.

For `CC[C@@]1(C)OCc2cnc(C(=O)N[C@H]3CCn4nc(C5CC5)cc4N(C)C3=O)cc21` [Example 245, (R)—N—((S)-2-cyclopropyl-4-methyl-5-oxo-5,6,7,8-tetrahydro-4H-pyrazolo[1,5-a][1,3]diazepin-6-yl)-1-ethyl-1-methyl-1,3-dihydrofuro[3,4-c]pyridine-6-carboxamide], under setting [1], the pKi was 6.11.

`CN1C(=O)C(NC(=O)c2ncn(Cc3ccccc3)n2)CCCn2nccc21` (stereo not drawn) [Example 94, 1-benzyl-N-(4-methyl-5-oxo-4,5,6,7,8,9-hexahydropyrazolo[1,5-a][1,3]diazocin-6-yl)-1H-1,2,4-triazole-3-carboxamide]: the pKi under setting [4] was 7.03.

Turning to `Cc1cc2n(n1)CC[C@H](NC(=O)c1ncc3cnn(C4CCOCC4)c3n1)C(=O)N2C` [Example 559, N-[(6S)-2,4-dimethyl-5-oxo-7,8-dihydro-6H-pyrazolo[1,5-a][1,3]diazepin-6-yl]-1-tetrahydropyran-4-yl-pyrazolo[3,4-d]pyrimidine-6-carboxamide], the negative logarithm of the Ki (pKi) under setting [2] is 6.24.

For the molecule `CN1C(=O)[C@@H](NC(=O)c2nc3n(n2)[C@@H](c2ccccc2)CC3)CCn2nccc21` (single isomer, unassigned) [Example 125], the pKi under setting [4] is 6.05.

As for `Cc1cc2n(n1)CC[C@H](NC(=O)c1ncn(C(C)c3ccccc3)n1)C(=O)N2C` (stereo partly drawn) [Example 271, N—((S)-2,4-dimethyl-5-oxo-5,6,7,8-tetrahydro-4H-pyrazolo[1,5-a][1,3]diazepin-6-yl)-1-(1-phenylethyl)-1H-1,2,4-triazole-3-carboxamide], the pKi under setting [1] was 7.03.

For `Cc1cc2n(n1)CC[C@H](NC(=O)c1ncn(Cc3ccccc3)n1)C(=O)N2C` [Example 172, (S)-1-benzyl-N-(2,4-dimethyl-5-oxo-5,6,7,8-tetrahydro-4H-pyrazolo[1,5-a][1,3]diazepin-6-yl)-1H-1,2,4-triazole-3-carboxamide], the negative logarithm of the Ki (pKi) under setting [4] was 7.64.

Turning to `Cc1cc2n(n1)CC[C@H](NC(=O)c1ncc3c(n1)C1(CCOCC1)OC3)C(=O)N2C` [Example 512, N-[(6S)-2,4-dimethyl-5-oxo-7,8-dihydro-6H-pyrazolo[1,5-a][1,3]diazepin-6-yl]spiro[5H-furo[3,4-d]pyrimidine-7,4′-tetrahydropyran]-2-carboxamide], the pKi under setting [2] is 6.08.

As for `CC(c1ccccc1)c1nnc(C(=O)N[C@H]2CCn3nccc3N(C)C2=O)[nH]1` (stereo partly drawn) [Example 100, N—((S)-4-methyl-5-oxo-5,6,7,8-tetrahydro-4H-pyrazolo[1,5-a][1,3]diazepin-6-yl)-5-(1-phenylethyl)-4H-1,2,4-triazole-3-carboxamide], the pKi under setting [4] is 6.72.

On to `CCC1(C)OCc2cnc(C(=O)N[C@H]3CCn4nc(C)cc4N(C)C3=O)nc21` (stereo partly drawn) [Example 326, N—((S)-2,4-dimethyl-5-oxo-5,6,7,8-tetrahydro-4H-pyrazolo[1,5-a][1,3]diazepin-6-yl)-7-ethyl-7-methyl-5,7-dihydrofuro[3,4-d]pyrimidine-2-carboxamide], for which the negative logarithm of the Ki (pKi) under setting [1] is 6.21.

Take `CN1C(=O)[C@@H](NC(=O)c2ncn(Cc3ccccc3)n2)CCn2nccc21` [Example 73, (S)-1-benzyl-N-(4-methyl-5-oxo-5,6,7,8-tetrahydro-4H-pyrazolo[1,5-a][1,3]diazepin-6-yl)-1H-1,2,4-triazole-3-carboxamide]: under setting [3], the negative-log Ki (pKi) was 7.57.

Regarding `CN1C(=O)[C@@H](NC(=O)c2cc3c(cn2)CO[C@@]32CCOC2)COc2ccccc21` (single isomer, unassigned) [Example 159], the negative-log Ki (pKi) under setting [4] is 6.49.

With `CC[C@@]1(C)OCc2cnc(C(=O)NC3CCn4ccnc4N(C)C3=O)cc21` (stereo partly drawn) [Example 233, (1R)-1-ethyl-1-methyl-N-(9-methyl-8-oxo-6,7,8,9-tetrahydro-5H-imidazo [1,2-a][1,3]diazepin-7-yl)-1,3-dihydrofuro[3,4-c]pyridine-6-carboxamide], the negative logarithm of the Ki (pKi) under setting [1] is 5.70.

As to `CN1C(=O)[C@@H](NC(=O)c2cn(Cc3ccccc3)cn2)CCn2nccc21` (single isomer, unassigned) [Example 750], the pKi under setting [5] was 7.18.

In the case of `CN1C(=O)[C@@H](NC(=O)c2nc3n(n2)C(C2CCOCC2)CCC3)COc2ccccc21` (stereo partly drawn) [Example 408, N—((S)-5-methyl-4-oxo-2,3,4,5-tetrahydrobenzo[b][1,4]oxazepin-3-yl)-5-(tetrahydro-2H-pyran-4-yl)-5,6,7,8-tetrahydro-[1,2,4]triazolo[1,5-a]pyridine-2-carboxamide], the negative logarithm of the Ki (pKi) under setting [2] is 6.83.

As for `Cc1cc2n(n1)CC[C@H](NC(=O)c1ncn(Cc3ccccc3C(F)(F)F)n1)C(=O)N2C` [Example 584, N-(6S)-2,4-dimethyl-5-oxo-7,8-dihydro-6H-pyrazolo[1,5-a][1,3]diazepin-6-yl-1-[[2-(trifluoromethyl)phenyl]methyl]-1,2,4-triazole-3-carboxamide], under setting [2], the pKi was 7.60.

As for `CC(C)[C@@H]1CCCc2nc(C(=O)N[C@H]3COc4cc(F)cc(F)c4NC3=O)nn21` (single isomer, unassigned) [Example 715], the pKi under setting [5] was 8.30.

With `CC(C)n1ncc2c1OC[C@H](NC(=O)c1nnc(Cc3ccccc3)[nH]1)C(=O)N2` [Example 197, (S)-5-benzyl-N-(1-isopropyl-5-oxo-4,5,6,7-tetrahydro-1H-pyrazolo [3,4-b][1,4]oxazepin-6-yl)-4H-1,2,4-triazole-3-carboxamide], the pKi under setting [4] is 5.29.

As for `CN1C(=O)C(NC(=O)c2ncn(Cc3ccc(F)cc3)n2)CCn2nc(C3CC3)cc21` (stereo not drawn) [Example 257, N-(2-cyclopropyl-4-methyl-5-oxo-5,6,7,8-tetrahydro-4H-pyrazolo[1,5-a][1,3]diazepin-6-yl)-1-(4-fluorobenzyl)-1H-1,2,4-triazole-3-carboxamide], the negative-log Ki (pKi) under setting [1] is 7.08.

As for `CN1C(=O)C(NC(=O)c2ncn(Cc3ccccc3)n2)CCn2nc(C3CCOCC3)cc21` (stereo not drawn) [Example 234, 1-benzyl-N-(4-methyl-5-oxo-2-(tetrahydro-2H-pyran-4-yl)-5,6,7,8-tetrahydro-4H-pyrazolo[1,5-a][1,3]diazepin-6-yl)-1H-1,2,4-triazole-3-carboxamide], the negative-log Ki (pKi) under setting [1] is 6.70.

With `COC1CN(Cc2cc3n(n2)CCC(NC(=O)c2ncn(Cc4ccccc4)n2)C(=O)N3C)C1` (single isomer, unassigned) [Example 722, 1-benzyl-N-[2-[(3-methoxyazetidin-1-yl)methyl]-4-methyl-5-oxo-7,8-dihydro-6H-pyrazolo[1,5-a][1,3]diazepin-6-yl]-1,2,4-triazole-3-carboxamide], the pKi under setting [5] was 6.35.

For `CN1C(=O)[C@@H](NC(=O)c2nc3n(n2)C(c2nccn2C)CC3)COc2ccccc21` (stereo partly drawn) [Example 361, 5-(1-methylimidazol-2-yl)-N-[(3S)-5-methyl-4-oxo-2,3-dihydro-1,5-benzoxazepin-3-yl]-6,7-dihydro-5H-pyrrolo[1,2-b][1,2,4]triazole-2-carboxamide], the pKi under setting [2] was 6.29.

Turning to `O=C(N[C@H]1CCc2cc(F)cc(F)c2NC1=O)c1ncc2c(n1)C1(CCC1)OC2` [Example 618], the pKi under setting [2] was 7.62.

As for `CC(C)n1ncc2cnc(C(=O)N[C@H]3COc4ccccc4N(C)C3=O)nc21` [Example 122, (S)-1-isopropyl-N-(5-methyl-4-oxo-2,3,4,5-tetrahydrobenzo[b][1,4]oxazepin-3-yl)-1H-pyrazolo[3,4-d]pyrimidine-6-carboxamide], under setting [4], the pKi is 7.71.

(Values after patent US10988459B2 (priority 2015, dated 2021).)
